The text below walks through data of patent publication US7396837B2, “Antitumoral analogs of lamellarins” (Pharma Mar, S.A.U., priority 2002, dated 2008).

One data set deals with T1, human topoisomerase I (Homo sapiens, UniProt P11387).
T1 sequence (P11387 1-765): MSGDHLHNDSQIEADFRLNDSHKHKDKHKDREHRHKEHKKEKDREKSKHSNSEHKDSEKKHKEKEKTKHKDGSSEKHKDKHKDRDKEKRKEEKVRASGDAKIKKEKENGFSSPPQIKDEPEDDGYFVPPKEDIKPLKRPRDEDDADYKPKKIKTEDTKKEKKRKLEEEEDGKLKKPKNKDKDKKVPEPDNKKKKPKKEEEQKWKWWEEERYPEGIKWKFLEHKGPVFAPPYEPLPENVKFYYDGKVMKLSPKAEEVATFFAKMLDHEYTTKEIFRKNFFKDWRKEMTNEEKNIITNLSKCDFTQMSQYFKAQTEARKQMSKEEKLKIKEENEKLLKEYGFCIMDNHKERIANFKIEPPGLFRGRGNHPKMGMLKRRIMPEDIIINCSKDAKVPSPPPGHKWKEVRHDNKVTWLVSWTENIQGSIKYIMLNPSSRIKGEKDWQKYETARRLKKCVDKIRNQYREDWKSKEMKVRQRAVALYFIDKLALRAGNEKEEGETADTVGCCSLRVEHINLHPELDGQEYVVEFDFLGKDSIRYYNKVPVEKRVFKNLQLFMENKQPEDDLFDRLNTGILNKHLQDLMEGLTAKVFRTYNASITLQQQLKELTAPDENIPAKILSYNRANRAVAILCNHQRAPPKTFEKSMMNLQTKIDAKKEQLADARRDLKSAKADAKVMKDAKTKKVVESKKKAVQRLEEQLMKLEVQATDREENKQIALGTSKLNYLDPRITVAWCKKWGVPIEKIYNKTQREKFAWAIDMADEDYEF
Nature of the data set: Topoisomerase I cleavage of radiolabeled 117-bp DNA fragment. The class given is biochemical. Conditions: for topoisomerase I-mediated DNA cleavage sites / cleavage profile: sequencing-type polyacrylamide gels. From the text:
Two assays, based on DNA relaxation and DNA cleavage (Bailly, C. DNA relaxation and cleavage assays to study topoisomerase I inhibitors. Methods Enzymol. 2001, 340, 610-623) were used evaluate the effects of the lamellarin analogs on the catalytic activity of human topoisomerase I.
A second assay, based on the cleavage of a radiolabeled DNA substrate by topoisomerase I, was used to confirm that the cationic lamellarin derivatives do effectively function as topoisomerase I poisons. A 117-bp DNA restriction fragment uniquely end-labeled at the 3′ end was subjected to cleavage by topoisomerase I in the presence of the different compounds and the resulting DNA cleavage products were resolved on sequencing-type polyacrylamide gels. The advantage of this assay is to detect the cleavage sites and to locate their positions with nucleotide resolution, providing thus information on the site selectivity of cleavage.

Another data set relates to fertilised sea urchin. Conditions: fertilised sea urchin assay; cited from earlier work.
A further data set deals with H-MEC-1. The experiment in a line: SRB colorimetric cell growth inhibition assay, H-MEC-1. The class given is cell-based. To be noted: Homo sapiens, HMEC-1, H-MEC-1; for GI50: GI=growth inhibition, read-out: GI50 H-MEC-1; for IC (TGI): total growth inhibition (cytostatic effect), read-out: TGI H-MEC-1. The gist of the method:
(§1)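 Sulforhodamine B colorimetric assay of cell growth and viability, mean ± SD of triplicate wells. Parameters derived: GI (growth inhibition), TGI (total growth inhibition, cytostatic) and LC (cell killing, cytotoxic).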

Another data set has as its system SKOV-3. Nature of the data set: SRB colorimetric cell growth inhibition assay, SKOV-3. The class given is cell-based. Conditions: Homo sapiens; for GI50: SK-OV-3, SKOV-3, GI=growth inhibition, read-out: GI50 SKOV-3; for IC (TGI) / LC50 (concentration causing 50% net cell killing): SK-OV-3, SKOV-3; for IC (TGI): total growth inhibition (cytostatic effect), read-out: TGI SKOV-3; for LC50 (concentration causing 50% net cell killing): cell killing (cytotoxic effect), read-out: LC50 SKOV-3. In a few lines: as §1

A short description of data set [1]: SRB colorimetric cell growth inhibition assay, H-MEC-1. It is filed as cell-based. To be noted: human, H-MEC-1 cells; H-MEC-1; cell killing (cytotoxic effect); read-out: LC50 H-MEC-1. In a few lines: as §1
Where [2] appears, read: 117-bp DNA restriction fragment 3' end-labeled.

Entries after “also recorded” stand apart in the source; their conditions may differ.

As for `COc1cc(-c2c3c4cc(OC)c(O)cc4oc(=O)c3n3ccc4cc(O)c(OC)cc4c23)ccc1O` [Compound 3, lamellarin D, reference compound], the “topoisomerase I-mediated DNA cleavage sites / cleavage profile” value on human topoisomerase I (117-bp DNA restriction fragment 3' end-labeled, listed as LAM-D) is reported as “T^↓G or C^↓G dinucleotides; also recorded: additional cleavage site at C^↓G73”. The “efficiency of topoisomerase I-mediated DNA cleavage at sites T↓G48 and T↓G81” value at human topoisomerase I (compared with CPT) is recorded as “less efficient than CPT”. For the same compound, the “inhibition of cell division” value with fertilised sea urchin was “inhibition of cell division”. Also, in the data set with H-MEC-1, the GI50 is 0.113 µM and the IC (TGI) came out at 3.14 µM. In the data set on SKOV-3, the GI50 is 0.0537 µM and the IC (TGI) is 0.24 µM.
Take `COc1cc(-c2c3c4cc(OC)c(OC(=O)[C@@H](N)C(C)C)cc4oc(=O)c3n3ccc4cc(OC(=O)[C@@H](N)C(C)C)c(OC)cc4c23)ccc1OC(=O)[C@@H](N)C(C)C` [Compound 36]: on human topoisomerase I (setting [2]), the “stimulation of DNA cleavage by topoisomerase I (radiolabeled DNA substrate)” value was “no difference between the (L) (36) and (D) (17) Val isomers”; the “topoisomerase I-mediated DNA cleavage sites / cleavage profile” value was “Cleavage profiles identical to that of 3”. Moreover, in the data set with H-MEC-1, the GI50 came to 0.00265 µM and the IC (TGI) was found to be 0.0086 µM. Further, the LC50 (concentration giving 50% net cell killing) in data set [1] is 1.35 µM. Moreover, in the data set with SKOV-3, the GI50 was found to be 0.0392 µM, the LC50 (concentration causing 50% net cell killing) turned out to be 5.89 µM and the IC (TGI) came out at 0.297 µM.
In the case of `COc1cc(-c2c3c4cc(OC)c(OC(=O)[C@@H]5CCCN5)cc4oc(=O)c3n3ccc4cc(OC(=O)[C@@H]5CCCN5)c(OC)cc4c23)ccc1OC(=O)[C@@H]1CCCN1` [Compound 33], on human topoisomerase I (setting [2]), the “topoisomerase I-mediated DNA cleavage sites / cleavage profile” value is given as “Cleavage profiles identical to that of 3”. Besides, in the data set on H-MEC-1, the GI50 worked out at 0.0098 µM and the IC (TGI) is 0.0214 µM. Moreover, the LC50 (concentration giving 50% net cell killing) in data set [1] was found to be 0.0463 µM. In the data set on SKOV-3, the concentration for 50% growth inhibition (GI50) came to 0.0391 µM, the LC50 (concentration causing 50% net cell killing) amounted to 5.03 µM and the IC (TGI) came to 0.228 µM.

As usually defined, the GI50 is the concentration giving 50% growth inhibition.
